From publication PMC9655618 (Cancers, 2022)

Columns and labels:
[1] = tested on: STAT5 transcriptional activity in Ba/F3 cells; assay: IL3-stimulated STAT5 transcriptional activity, Renilla reporter Ba/F3 cells; conditions: 4 h pretreatment, mIL3 30 ng/ml 16 h
T47D cells = assay: Cell cycle analysis by flow cytometry; format: cell-based, human; conditions: 5 μM; 48h
Protocol: For cell cycle studies, unsynchronized T47D cells were seeded at 250,000 cells/well in RPMI (Biowest, Nuaillé, France) 10% FBS medium supplemented with L-glutamine (2 mM), HEPES (10 mM), sodium pyruvate (1 mM) and PEST. […] Cells were then washed in ice-cold PBS and fixed in cold 70% ethanol at −20 °C overnight. Then, the cell pellet was resuspended in FACs buffer (2 mM EDTA, 2% FBS in PBS) and incubated with Ki67-APC antibody (Miltenyi Biotec, Auburn, CA, USA) and DAPI (4′,6-diamidino-2-phenylindole; Sigma-Aldrich) for 20 min at room temperature. Finally, cells were washed and resuspended with FACs Buffer for cell cycle analyses. For apoptosis studies, an Annexin V-FITC Apoptosis Kit (Miltenyi Biotec) was used. Briefly, treated cells were collected in 100 μL of ice-cold AnnexinV binding buffer (10 mM HEPES pH 7.4, 140 mM NaCl, 2.5 mM CaCl2) containing 10 μL of Annexin-V FITC and incubated for 15 min at room temperature. After that, cells were washed with 1 mL binding buffer, sedimented at 300× g 10 min, and resuspended with 500 μL binding buffer containing 5 μL of propidium iodide (PI; 100 μg/mL) prior to acquisition in MACSQuant10 cytometer (Miltenyi Biotec) where 10,000 or 20,000 events were used for cell cycle and apoptosis analysis, respectively.

[2] = tested on: polyubiquitinated protein level in T47D cells; assay: Immunoblotting; format: cell-based, human; conditions: from 24 h to 72 h
Protocol: Then, they were washed with ice-cold PBS supplemented with 1 mM ortovanadate and lysed with RIPA buffer containing protease and phosphatase inhibitors (Thermo Fisher Scientific, Waltham, MA, USA). Equal protein amounts were analyzed by SDS–PAGE, and transferred to nitrocellulose membranes (Thermo Fisher Scientific, Waltham, MA, USA), blocked with Tris-buffered saline/0.05% Tween 20 (TBS-T) containing 5% blotto (Merck, Darmstadt, Germany) or 5% BSA for total and phosphorylated proteins, respectively. Immunoblotting was carried out with mouse anti-ERα F-10 (Santa Cruz Biotech, Santa Cruz, CA, USA), rabbit total anti-STAT5 (Cell Signaling Technology, Leiden, The Netherlands) or mouse anti-polyubiquitin (EMD Millipore, Burlington, MA, USA). After washing, membranes were incubated with horseradish peroxidase-conjugated secondary antibodies (Bio-Rad) for 1 h at room temperature. The β-actin antibody (Santa Cruz Biotech, CA, USA) was used as the loading control. Finally, protein bands were visualized by using Clarity™ Western ECL Substrate (Bio-Rad) in the ChemiDoc XRS system (Bio-Rad) and were analyzed with Quantity One software (Bio-Rad).

[3] = tested on: ERα-mediated transcription (3xERE-luciferase), T47D-KBluc cells; assay: ER-dependent transcriptional activity, 3xERE-luciferase reporter in T47D-KBluc cells; conditions: until dropping to 20% Emax
[4] = tested on: STAT3 transcriptional activity in HEK293 cells; assay: IL6-induced STAT3 transcriptional activity, Renilla reporter HEK-293 cells; conditions: 4 h pretreatment, hIL6 10 ng/ml 16 h

Row | Compound | IC50, IL3-stimulated STAT5 transcriptional activity [1] | G2/S/M cells (T47D cells) [%] | effect on polyubiquitinated protein level [2] | effect on E2-induced luciferase activity [3] | IC50, IL6-induced STAT3 transcriptional activity [4]
1 | Cc1ccc(C2=CC(O)(c3ccccc3)N(Cc3ccccc3)C2=O)cc1C (centres unmarked) [compound 32, 1-benzyl-3-(3,4-dimethylphenyl)-5-hydroxy-5-phenyl-1H-pyrrol-2(5H)-one] | no activity |  |  |  | 
2 | O=C1C(c2ccc([N+](=O)[O-])cc2)=CC(O)(c2ccccc2)N1Cc1ccccc1 (centres unmarked) [compound 35, 1-benzyl-5-hydroxy-3-(4-nitrophenyl)-5-phenyl-1H-pyrrol-2(5H)-one] |  | 16.52 | significantly increased polyubiquitinated protein level | reduced E2-induced luciferase activity | inactive
